Assays:
Experiment in all cases: relative viability (nuclei count vs DMSO), 5 days (fraction); higher = more cells survive
NCI-H3122 = tested on: NCI-H3122
Procedure, shortened: (§1)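 Relative viability is defined as nuclei in treated wells over nuclei in vehicle wells. Duplicate plates were run and medians reported. Lung cancer cell lines in 1536-well plates were dosed by pin tool one day after seeding, with one drug or with a fixed anchor-drug dose plus five library-drug doses (not always all listed) in √10 steps, and nuclei were counted after 5 days.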

HCC-44 = tested on: HCC-44
Procedure, shortened: as §1

NCI-H1395 = tested on: NCI-H1395
Procedure, shortened: as §1

NCI-H2087 = tested on: NCI-H2087
Procedure, shortened: as §1

NCI-H23 = tested on: NCI-H23
Procedure, shortened: as §1

HARA = tested on: HARA
Procedure, shortened: as §1

NCI-H2009 = tested on: NCI-H2009
Procedure, shortened: as §1

NCI-H441 = tested on: NCI-H441
Procedure, shortened: as §1

LOU-NH91 = tested on: LOU-NH91
Procedure, shortened: as §1

NCI-H727 = tested on: NCI-H727
Procedure, shortened: as §1

BEN = tested on: BEN
Procedure, shortened: as §1

NCI-H1993 = tested on: NCI-H1993
Procedure, shortened: as §1

NCI-H2347 = tested on: NCI-H2347
Procedure, shortened: as §1

201T = tested on: 201T
Procedure, shortened: as §1

NCI-H838 = tested on: NCI-H838
Procedure, shortened: as §1

NCI-H2126 = tested on: NCI-H2126
Procedure, shortened: as §1

NCI-H1666 = tested on: NCI-H1666
Procedure, shortened: as §1

NCI-H2023 = tested on: NCI-H2023
Procedure, shortened: as §1

NCI-H596 = tested on: NCI-H596
Procedure, shortened: as §1

EMC-BAC-2 = tested on: EMC-BAC-2
Procedure, shortened: as §1

NCI-H647 = tested on: NCI-H647
Procedure, shortened: as §1

Work on `NC(=O)Nc1cc(-c2cccc(F)c2)sc1C(=O)N[C@H]1CCCNC1` [AZD7762] + CC1(C)CCC(c2ccc(Cl)cc2)=C(CN2CCN(c3ccc(C(=O)NS(=O)(=O)c4ccc(N[C@H](CCN5CCOCC5)CSc5ccccc5)c(S(=O)(=O)C(F)(F)F)c4)cc3)CC2)C1 [Navitoclax] (partner 0.5 µM) yielded a relative viability (NCI-H3122; first compound 0.01 µM) of 0.97, a relative viability (NCI-H3122; first compound 0.03162 µM) of 1.03 and a relative viability (NCI-H3122; first compound 0.1 µM) of 1.01. The relative viability (NCI-H3122; first compound 0.3162 µM) was 0.995, the relative viability (NCI-H3122; first compound 1 µM) was 1.05 and the relative viability (HCC-44; first compound 0.01 µM) was 1.1. The relative viability (HCC-44; first compound 0.03162 µM) was 0.933, the relative viability (HCC-44; first compound 0.1 µM) was 1.01 and the relative viability (HCC-44; first compound 0.3162 µM) was 0.901. For the same compound, the relative viability (HCC-44; first compound 1 µM) was 1.01, the relative viability (NCI-H1395; first compound 0.01 µM) was 1.27 and the relative viability (NCI-H1395; first compound 0.03162 µM) was 1.66. For the same compound, the relative viability (NCI-H1395; first compound 0.1 µM) was 1.41, the relative viability (NCI-H1395; first compound 0.3162 µM) was 0.634 and the relative viability (NCI-H1395; first compound 1 µM) was 0.408. It also gave a relative viability (NCI-H2087; first compound 0.01 µM) of 1.13, a relative viability (NCI-H2087; first compound 0.03162 µM) of 1 and a relative viability (NCI-H2087; first compound 0.1 µM) of 1.27. The relative viability (NCI-H2087; first compound 0.3162 µM) was 1.17, the relative viability (NCI-H2087; first compound 1 µM) was 1.28 and the relative viability (NCI-H23; first compound 0.01 µM) was 0.983. It also gave a relative viability (NCI-H23; first compound 0.03162 µM) of 0.886, a relative viability (NCI-H23; first compound 0.1 µM) of 0.905 and a relative viability (NCI-H23; first compound 0.3162 µM) of 0.783. For the same compound, the relative viability (NCI-H23; first compound 1 µM) was 0.464, the relative viability (HARA; first compound 0.01 µM) was 1.12 and the relative viability (HARA; first compound 0.03162 µM) was 1.15. It also gave a relative viability (HARA; first compound 0.1 µM) of 1.2, a relative viability (HARA; first compound 0.3162 µM) of 1.12 and a relative viability (HARA; first compound 1 µM) of 0.801. For the same compound, the relative viability (NCI-H2009; first compound 0.01 µM) was 1.27, the relative viability (NCI-H2009; first compound 0.03162 µM) was 1.19 and the relative viability (NCI-H2009; first compound 0.1 µM) was 1.25. The relative viability (NCI-H2009; first compound 0.3162 µM) was 1.13, the relative viability (NCI-H2009; first compound 1 µM) was 1.08 and the relative viability (NCI-H441; first compound 0.01 µM) was 0.803. The relative viability (NCI-H441; first compound 0.03162 µM) was 0.684, the relative viability (NCI-H441; first compound 0.1 µM) was 0.721 and the relative viability (NCI-H441; first compound 0.3162 µM) was 0.479. For the same compound, the relative viability (NCI-H441; first compound 1 µM) was 1.1, the relative viability (LOU-NH91; first compound 0.01 µM) was 0.753 and the relative viability (LOU-NH91; first compound 0.03162 µM) was 0.673. The relative viability (LOU-NH91; first compound 0.1 µM) was 0.619, the relative viability (LOU-NH91; first compound 0.3162 µM) was 0.562 and the relative viability (LOU-NH91; first compound 1 µM) was 0.4. The relative viability (NCI-H727; first compound 0.01 µM) was 0.456, the relative viability (NCI-H727; first compound 0.03162 µM) was 0.54 and the relative viability (NCI-H727; first compound 0.1 µM) was 0.397. The relative viability (NCI-H727; first compound 0.3162 µM) was 0.318, the relative viability (NCI-H727; first compound 1 µM) was 0.111 and the relative viability (BEN; first compound 0.01 µM) was 0.0635. The relative viability (BEN; first compound 0.03162 µM) was 0.0616, the relative viability (BEN; first compound 0.1 µM) was 0.0641 and the relative viability (BEN; first compound 0.3162 µM) was 0.0656. The relative viability (BEN; first compound 1 µM) was 0.0695, the relative viability (NCI-H1993; first compound 0.01 µM) was 0.943 and the relative viability (NCI-H1993; first compound 0.03162 µM) was 1.04. The relative viability (NCI-H1993; first compound 0.1 µM) was 0.846, the relative viability (NCI-H1993; first compound 0.3162 µM) was 0.983 and the relative viability (NCI-H1993; first compound 1 µM) was 0.823. For the same compound, the relative viability (NCI-H2347; first compound 0.01 µM) was 0.829, the relative viability (NCI-H2347; first compound 0.03162 µM) was 0.934 and the relative viability (NCI-H2347; first compound 0.1 µM) was 0.935. The relative viability (NCI-H2347; first compound 0.3162 µM) was 0.991, the relative viability (NCI-H2347; first compound 1 µM) was 0.982 and the relative viability (201T; first compound 0.01 µM) was 1.18. The relative viability (201T; first compound 0.03162 µM) was 1.23, the relative viability (201T; first compound 0.1 µM) was 1.21 and the relative viability (201T; first compound 0.3162 µM) was 1.25. It also gave a relative viability (201T; first compound 1 µM) of 1.27, a relative viability (NCI-H838; first compound 0.01 µM) of 1.19 and a relative viability (NCI-H838; first compound 0.03162 µM) of 1.15. For the same compound, the relative viability (NCI-H838; first compound 0.1 µM) was 1.09, the relative viability (NCI-H838; first compound 0.3162 µM) was 1.03 and the relative viability (NCI-H838; first compound 1 µM) was 0.576. It also gave a relative viability (NCI-H2126; first compound 0.01 µM) of 0.811, a relative viability (NCI-H2126; first compound 0.03162 µM) of 0.866 and a relative viability (NCI-H2126; first compound 0.1 µM) of 0.889. The relative viability (NCI-H2126; first compound 0.3162 µM) was 0.79, the relative viability (NCI-H2126; first compound 1 µM) was 0.91 and the relative viability (NCI-H1666; first compound 0.01 µM) was 1.24. For the same compound, the relative viability (NCI-H1666; first compound 0.03162 µM) was 1.36, the relative viability (NCI-H1666; first compound 0.1 µM) was 1.23 and the relative viability (NCI-H1666; first compound 0.3162 µM) was 0.797. The relative viability (NCI-H1666; first compound 1 µM) was 0.661, the relative viability (NCI-H2023; first compound 0.01 µM) was 0.992 and the relative viability (NCI-H2023; first compound 0.03162 µM) was 0.771. It also gave a relative viability (NCI-H2023; first compound 0.1 µM) of 0.663, a relative viability (NCI-H2023; first compound 0.3162 µM) of 0.287 and a relative viability (NCI-H2023; first compound 1 µM) of 0.118. It also gave a relative viability (NCI-H596; first compound 0.01 µM) of 1.14, a relative viability (NCI-H596; first compound 0.03162 µM) of 0.936 and a relative viability (NCI-H596; first compound 0.1 µM) of 1.06. It also gave a relative viability (NCI-H596; first compound 0.3162 µM) of 0.912, a relative viability (NCI-H596; first compound 1 µM) of 0.698 and a relative viability (EMC-BAC-2; first compound 0.01 µM) of 1.22. It also gave a relative viability (EMC-BAC-2; first compound 0.03162 µM) of 1.11, a relative viability (EMC-BAC-2; first compound 0.1 µM) of 1.16 and a relative viability (EMC-BAC-2; first compound 0.3162 µM) of 1.18. For the same compound, the relative viability (EMC-BAC-2; first compound 1 µM) was 1.18, the relative viability (NCI-H647; first compound 0.01 µM) was 1.33 and the relative viability (NCI-H647; first compound 0.03162 µM) was 1.08. The relative viability (NCI-H647; first compound 0.1 µM) was 0.969, the relative viability (NCI-H647; first compound 0.3162 µM) was 0.858 and the relative viability (NCI-H647; first compound 1 µM) was 0.277.

From the supplement of paper PMC10307832
